Values after ≈ are worked out from the molar mass of the structure shown.

The subject of one data set is sheep erythrocytes. The data set is described as follows: Haemolytic activity on sheep erythrocytes. Type of data set: cell-based. The note with it: at the doses tested, 1 hour at 37° C. The procedure: The haemolytic activity of the pseudopeptides is tested on sheep blood cells. The sheep erythrocytes are washed three times with a phosphate buffer saline [PBS buffer (pH 7.4)] by 5 minutes' centrifugation at 900 g and the final pellet is suspended in PBS. For the concentration of the erythrocyte solution, a concentration of erythrocytes corresponding to OD540 nm is established, and for the control well 100% haemolysis in the presence of 0.8 Triton X-100. The solutions of the different pseudopeptides diluted in water (100 μL) are arranged in a 96-well plate. 50 μL, of PBS 2× buffer solution then 50 μL of sheep erythrocyte solution is added to these solutions in order to produce a final volume of 200 μL. The suspensions obtained are incubated for 1 hour at 37° C. The samples are then centrifuged at 500 g for 5 min. 130 μL of supernatant of each sample is transferred to a new 96-well plate. The release of haemoglobin is quantified by measuring the absorbance at 540 nm of the supernatant by means of a microplate reader. The controls corresponding to the absence of haemolysis (white) and 100% haemolysis involve, respectively, the addition of 100 μL of PBS buffer and 100 μL of a 2% Triton X-100 solution to the wells containing 100 μL of saline erythrocyte solution (50 μL of PBS 2× and 50 μL of blood cell solution). Each measurement is carried out in triplicate.

The next data set has as its system Streptococcus aureus. The data set is described as follows: Antibacterial activity in poor medium enriched with beef extract PBB (MIC, MBC). The conditions noted are these: increasing doses (FIG. 3). Format: cell-based. The procedure:
(§1) The tests were carried out on Gram-negative bacterial strains of Group 2 (pathogens): Escherichia coli, Salmonella thyphimurium, Pseudomonas aeruginosa, Klebsiella pneumonie and on Gram-positive strains: Bacillus megaterium (group 1) and […] (group 2).
(§2) The bacteria are incubated in a PB poor medium in the case of the bacteria: Escherichia coli, Pseudomonas aeruginosa, Klebsiella pneumoniae, Bacillus megaterium and in a poor medium enriched with beef extract PBB in the case of two other bacteria: […] and Salmonella thyphimurium with increasing concentrations of peptides or analogues ranging from 1 to 320 μg/ml. This test is carried out in 96-well microplates. After incubation for 18 hours at 30° C. or 37° C., the optical density of the microplates is read at 595 nm in order to evaluate the bacterial growth and determine the minimum inhibitory concentration (MIC) for each molecule tested. Each measurement is performed in triplicate.
(§3) Moreover, the minimum bactericidal concentration (MBC) is determined by plating the contents of the wells where there is an absence of bacterial growth on dishes containing rich media (Luria broth or (LB) or Brain Heart Infusion (BHi). The MBC corresponds to the concentration at which no bacterial colony is detected after incubation for 24 hours at 30 or 37° C.

The subject of a further data set is Salmonella thyphimurium. The data set is described as follows: Antibacterial activity in poor medium enriched with beef extract PBB. Format: cell-based. The note with it: increasing doses (FIG. 4). Here is the method:
as §1, §2, §3

Data set [1] concerns Gram-negative bacteria (E. coli to A. caviae). The data set is described as follows: Antibacterial activity in TSB rich medium (MIC), Gram-negative bacteria. Type of data set: cell-based. The conditions noted are these: 48 hours, at the concentrations tested (0.78-100 μM). The procedure: The tests were carried out on Gram-negative bacterial strains: Escherichia coli ATCC 25922, Salmonella enterica ATCC 13076, Pseudomonas aeruginosa ATCC 27853, Klebsiella oxytoca CIP 7932, Enterobacter aerogenes ATCC 13048 and Aeromonas caviae ATCC 15468 and on Gram-positive strains: Staphylococcus aureus ATCC 25923, Enterococcus faecalis CIP 186, Streptococcus equinus ATCC 5623, Listeria monocytogenes SOR 100, Bacillus megaterium ATCC 10778, Lactococcus gaviae ATCC 43921, Micrococcus luteus ATCC 10240.
The bacteria (10^5 CFU/mL) are incubated in a TSB (Tryptic Soy Broth) rich medium with increasing concentrations of cyclopseudopeptides (0.78, 3.12, 6.25, 12.5, 25, 50, 100 μM). This test is carried out in 96-well microplates. After incubation for 48 hours at 20° C. or 37° C., the optical density of the microplates is read at 595 nm in order to evaluate the bacterial growth and determine the minimum inhibitory concentration (MIC) for each molecule tested. Each measurement is carried out in triplicate.

The subject of data set [2] is mouse cell line ascites 302-sp. The data set is described as follows: In vitro cytotoxicity (MTT). Type of data set: cell-based. The procedure:
(§4) The effects of the different cyclic pseudopeptides on cell growth are evaluated in sterile 96-well plates. The cells are seeded at 5.10^5 cells per mL of culture medium (100 μL per well). The different pseudopeptides (10 μL per well) diluted in a saline solution are added at the time of seeding at the appropriate concentration (from 1 μg/mL to 1 mg/mL). The incubations are carried out at 37° C. under a humidified atmosphere containing 5% CO2 for 24 or 48 hours.
(§5) After exposure to the compounds, the cell growth is assessed by measuring the formation of formazan from 3-(4,5-dimethylthiazol-2-yl)-2,5-diphenyltetrazolium (MTT). The absorbance at 540 nm is measured by a Titertek Multiscan MCC/340 microplate reader. Each measurement is carried out in triplicate.

The nature of data set [3]: In vitro cytotoxicity (MTT). Type of data set: cell-based, hamster. The note with it: hamster, CHO-K1 cells; read-out: lethal dose for 50% of the cells (LD50). Here is the method: as §4, §5
A further data set relates to hamster cells (CHO-K1). The data set is described as follows: In vitro cytotoxicity (MTT). Format: cell-based. The note with it: at 10 μg/mL. The procedure: as §4, §5
Data set [4] has as its system rabbit erythrocytes. The data set is described as follows: Haemolytic activity on rabbit erythrocytes. Type of data set: cell-based. Here is the method:
The haemolytic activity of the pseudopeptides is tested on rabbit blood cells. Fresh rabbit erythrocytes are washed three times with a phosphate buffer saline [PBS buffer (pH 7.4)] by centrifugation for 5 min at 900 g and the final pellet is suspended in PBS. The NafNaf pseudopeptide solutions diluted in PBS (90 μL) are arranged in a 96-well plate. 90 μL of 2% rabbit erythrocyte solution (v/v) is added to these solutions to give a final volume of 180 μL and a concentration of 1% (v/v) blood cells. The suspensions obtained are incubated for 1 hour at 37° C. The samples are then centrifuged at 500 g for 5 min. 100 μL of supernatant of each sample is transferred into a new 96-well plate. The release of the haemoglobin is quantified by measuring the absorbance at 415 nm of the supernatant using a microplate reader. The controls corresponding to the absence of haemolysis (white) and to a 100% haemolysis consist, respectively, of the addition of 90 μL of PBS buffer and 90 μL of a 2% solution of Triton X-100 to the 90 μL of 2% blood cell solution. Each measurement is carried out in triplicate.

The test system of data set [5] is rabbit erythrocytes. The note with it: comparison peptide alternating L and D amino acids; cited from earlier work.

As for `CC(C)C[C@@H]1NC(=O)CN(Cc2ccc(F)c3ccccc23)NC(=O)[C@H](CC(C)C)NC(=O)CN(Cc2cccc3ccccc23)NC(=O)[C@H](CCCCN)NC(=O)CN(CCCCN)NC1=O` [4Fluo1Naf, c[-Leu-azaβ^3Lys-Lys-azaβ^3(1)-Nal-Leu-azaβ^3(4F-1)Nal-]], the haemolytic activity entry in the data set with sheep erythrocytes is given as “no significant haemolytic activity”.

For the compound `CC1(C)S[C@@H]2[C@H](NC(=O)[C@H](N)c3ccccc3)C(=O)N2[C@H]1C(=O)O` [Ampicillin], the “concentration at which active” value with Streptococcus aureus and in the data set with Salmonella thyphimurium was 1 µg/mL throughout.

As for `N=C(N)NCCC[C@@H]1NC(=O)CN(CC2CCCCC2)NC(=O)[C@H](Cc2c[nH]c3ccccc23)NC(=O)CN(Cc2ccc(F)cc2)NC(=O)[C@H](CC2CCCCC2)NC(=O)CN(CCCCN)NC1=O` [FluoKil, c[-Arg-azaβ^3Lys-Cha-azaβ^3(4)Fpa-Trp-azaβ^3Cha-]], the haemolytic activity result in the data set on sheep erythrocytes is “no significant haemolytic activity”.

`CCCCCCCCCCCCN1CC(=O)N[C@@H](Cc2c[nH]c3ccccc23)C(=O)NN(Cc2cccc3ccccc23)CC(=O)N[C@@H](CCCCN)C(=O)NN(CCCCN)CC(=O)N[C@@H](CC2CCCCC2)C(=O)N1` [Chado, c[-Lys-azaβ^3Lys-Cha-azaβ^3Amy-Trp-azaβ^3(1)Nal-]]: in data set [1], the “activity on the Gram-negative bacteria” value was “no activity”.

Turning to `CC(C)C[C@@H]1NC(=O)CN(Cc2cccc3ccccc23)NC(=O)[C@H](CC(C)C)NC(=O)CN(Cc2cccc3ccccc23)NC(=O)[C@H](CCCCN)NC(=O)CN(CCCCN)NC1=O` [NafNaf, c[-Leu-azaβ^3Lys-Lys-azaβ^3(1)Nal-Leu-azaβ^3(1)Nal-]], the LD50 entry in data set [2] (ascites 302-sp, compared with hamster cells) is recorded as “slightly lower”. In data set [2] (at 10 μg/mL), the “effect on the cell viability” value is recorded as “slight effect”. Moreover, in data set [3], the CC50 was about 40 mg/L (≈ 43.4 µM). For the same compound, the cytotoxic effect entry with hamster cells (CHO-K1) is “no cytotoxic effect”. In the data set with rabbit erythrocytes [4] (at 20 μg/mL), the “action on the erythrocytes” value is recorded as “no action”. In addition, the haemolytic activity entry in the data set on rabbit erythrocytes [4] (at the concentrations at which it is bactericidal) is given as “no haemolytic activity”; with sheep erythrocytes it was “no significant haemolytic activity”.

For “[-(D)Lys-(L)Lys-(D)Leu-(L)Trp-(D)Leu-(L)Trp-]”, in the data set with rabbit erythrocytes [5], the “concentration at which haemolytic” value was 80 µg/mL.
